Assay results taken from patent publication US20070172912A1, “Method for fluorescently staining tissue” (PENTAX Corporation, priority 2006, published 2007).

Tested on: slices of the large intestines
Assay: Degree of permeation of staining solution in slices of large intestines, varying pH
Parameters: species or system rat
Settings: 0.1 mg/mL, pH 4.0, 5.0, 6.0, 7.0 and saline
Experimental: Slices of the large intestines used in Example 4 were observed, and the degree of permeation of a staining solution was observed. Fluorescein sodium was adjusted to 0.1 mg/mL in the same way as in Example 4 by dilution with solutions with pH 4.0, 5.0, 6.0, and 7.0 and a saline. Imaging was performed with a fluorescence microscope (manufactured by ZEISS, LSM510) under imaging conditions including a pinhole diameter of 1.0 and Max, and 20× and 40× lenses were used.

difference in the degree of permeation into the tissues between staining solutions with varying pH: no significant difference
Compound: O=C1OC2(c3ccc(O)cc3Oc3cc(O)ccc32)c2ccccc21 [F—Na, fluorescein sodium]
